Test results as given in ChEMBL document CHEMBL1201862, “PubChem BioAssay data set” (2004).
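Where inhibition never reached the appropriate level, the endpoint shown equals the highest concentration tested. Otherwise, values were interpolated linearly from a five-concentration, 48-hour dose response in 96-well plates. Abbreviation: GI50, concentration required for 50% inhibition of growth.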 Calls of active or inactive are those of the source. No stated cut-off is given here; in the data, active = GI50 up to about 1.1 µM and inactive = higher.

Columns and labels:
Assay in all cases: NCI-60 cell line screen, 48 h
DU-145 = tested on: DU-145
SNB-19 = tested on: SNB-19
HL-60 = tested on: HL-60
NCI-H460 = tested on: NCI-H460
RXF 393 = tested on: RXF 393
MDA-MB-231 = tested on: MDA-MB-231
NCI/ADR-RES = tested on: NCI/ADR-RES
NCI-H226 = tested on: NCI-H226
MOLT-4 = tested on: MOLT-4
Hs-578T = tested on: Hs-578T
UACC-62 = tested on: UACC-62
LOX IMVI = tested on: LOX IMVI
Malme-3M = tested on: Malme-3M
ACHN = tested on: ACHN
SW-620 = tested on: SW-620
EKVX = tested on: EKVX
A498 = tested on: A498
MDA-MB-435 = tested on: MDA-MB-435
KM-20L2 = tested on: KM-20L2
DMS-114 = tested on: DMS-114

Compound | GI50 (DU-145) | GI50 (SNB-19) | GI50 (HL-60) | GI50 (NCI-H460) | GI50 (RXF 393) | GI50 (MDA-MB-231) | GI50 (NCI/ADR-RES) | GI50 (NCI-H226) | GI50 (MOLT-4) | GI50 (Hs-578T) | GI50 (UACC-62) | GI50 (LOX IMVI) | GI50 (Malme-3M) | GI50 (ACHN) | GI50 (SW-620) | GI50 (EKVX) | GI50 (A498) | GI50 (MDA-MB-435) | GI50 (KM-20L2) | GI50 (DMS-114)
NNC(=O)CCc1ccc2ccc3ccccc3c2c1 | > 100 µM (inactive) | 85.7 µM (inactive) | 0.312 µM (active) | > 100 µM (inactive) | 94.4 µM (inactive) | > 100 µM (inactive) | 89.1 µM (inactive) | 15.9 µM (inactive) | 63.5 µM (inactive) | 57.7 µM (inactive) | > 100 µM (inactive) | 98.9 µM (inactive) | 79.1 µM (inactive) | > 100 µM (inactive) | > 100 µM (inactive) | 16.4 µM (inactive) | 49.2 µM (inactive) | > 100 µM (inactive) |  | 
CC1=C(C)[C@@]2(C)O[C@@]2(C)O[C@@]2(C)O[C@@]12C | > 100 µM (inactive) | > 100 µM (inactive) |  |  |  | > 100 µM (inactive) | > 100 µM (inactive) | > 100 µM (inactive) |  | > 100 µM (inactive) | > 100 µM (inactive) | > 100 µM (inactive) | > 100 µM (inactive) | > 100 µM (inactive) |  | > 100 µM (inactive) | > 100 µM (inactive) | > 100 µM (inactive) |  | 
COC(=S)OC1CC(n2cnc3c(N)ncnc32)OC1CO[Si](C)(C)C(C)(C)C (centres undefined) | 16.8 µM (inactive) | 33 µM (inactive) | > 100 µM (inactive) | 20.3 µM (inactive) | 12.1 µM (inactive) | 18.8 µM (inactive) | 22.4 µM (inactive) | 21.8 µM (inactive) | 5.24 µM (inactive) |  | 10.6 µM (inactive) | 39.7 µM (inactive) | 31.5 µM (inactive) |  | 28.6 µM (inactive) |  | 22 µM (inactive) | 17 µM (inactive) |  | 
Cc1ccc2oc3c(ccc(=O)n3C)c(=O)c2c1 | > 100 µM (inactive) | > 100 µM (inactive) | > 100 µM (inactive) | > 100 µM (inactive) | > 100 µM (inactive) | > 100 µM (inactive) | > 100 µM (inactive) | > 100 µM (inactive) |  | > 100 µM (inactive) | > 100 µM (inactive) | > 100 µM (inactive) | > 100 µM (inactive) | > 100 µM (inactive) | > 100 µM (inactive) | 89.7 µM (inactive) | > 100 µM (inactive) | > 100 µM (inactive) |  | 
COc1cccc(C2C(C(=O)O)=C(CO)Oc3cc4c(cc32)OCO4)c1OC (centres undefined) |  | > 100 µM (inactive) | > 100 µM (inactive) | > 100 µM (inactive) |  |  |  | > 100 µM (inactive) | > 100 µM (inactive) |  | > 100 µM (inactive) | > 100 µM (inactive) | > 100 µM (inactive) | > 100 µM (inactive) | > 100 µM (inactive) | > 100 µM (inactive) | > 100 µM (inactive) |  | > 100 µM (inactive) | 
COC(=O)C1=C(C)N2CCOC2(C)C(C(=O)OC)C1c1ccc[nH]1 (centres undefined) |  | > 100 µM (inactive) | > 100 µM (inactive) | > 100 µM (inactive) | > 100 µM (inactive) |  |  | > 100 µM (inactive) | > 100 µM (inactive) |  | > 100 µM (inactive) |  |  | > 100 µM (inactive) | > 100 µM (inactive) | > 100 µM (inactive) |  |  | > 100 µM (inactive) | > 100 µM (inactive)
COC(=O)c1cc(NC2OCC(OC(C)=O)C(OC(C)=O)C2OC(C)=O)nc(SC)c1C(=O)OC (centres undefined) | > 100 µM (inactive) | > 100 µM (inactive) | 74 µM (inactive) | > 100 µM (inactive) |  | > 100 µM (inactive) | > 100 µM (inactive) |  | > 100 µM (inactive) | > 100 µM (inactive) | > 100 µM (inactive) | > 100 µM (inactive) |  | > 100 µM (inactive) | > 100 µM (inactive) | > 100 µM (inactive) |  | > 100 µM (inactive) |  | 
CN1c2ccccc2C(=O)NC12CCN(CCCC(=O)c1ccc(F)cc1)CC2 | > 100 µM (inactive) |  | 30.7 µM (inactive) |  | 62.8 µM (inactive) | 40.9 µM (inactive) | > 100 µM (inactive) | > 100 µM (inactive) | 21.1 µM (inactive) | > 100 µM (inactive) | > 100 µM (inactive) |  | 27.7 µM (inactive) | > 100 µM (inactive) | 50.4 µM (inactive) | > 100 µM (inactive) |  | 56.8 µM (inactive) |  | 
Cc1cc(S(=O)(=O)Nc2nc(Nc3ccccc3)n[nH]2)c(SSc2cc(Cl)c(C)cc2S(=O)(=O)Nc2nc(Nc3ccccc3)n[nH]2)cc1Cl | > 100 µM (inactive) | 94.8 µM (inactive) | 25.1 µM (inactive) | > 100 µM (inactive) | > 10 µM (inactive) | 32.2 µM (inactive) | > 100 µM (inactive) |  | 35.7 µM (inactive) | 86.1 µM (inactive) | > 100 µM (inactive) | > 100 µM (inactive) | 46.8 µM (inactive) | > 100 µM (inactive) | > 100 µM (inactive) | > 100 µM (inactive) |  | > 100 µM (inactive) |  | 
O=c1cc(-c2cc(O)c(O)c(-c3c(O)cc4oc(-c5ccc(O)c(O)c5)cc(=O)c4c3O)c2)oc2cc(O)cc(O)c12 | > 25 µM (inactive) |  | > 25 µM (inactive) | > 25 µM (inactive) | > 25 µM (inactive) | > 25 µM (inactive) | > 25 µM (inactive) | > 25 µM (inactive) | > 25 µM (inactive) | > 25 µM (inactive) | > 25 µM (inactive) | > 25 µM (inactive) | > 25 µM (inactive) |  | > 25 µM (inactive) | > 25 µM (inactive) | > 25 µM (inactive) | > 25 µM (inactive) |  | 
Cc1cc(C)nc(NS(=O)(=O)c2ccc(Nc3c4ccccc4nc4c(C(=O)N5CCN(CCOS(C)(=O)=O)CC5)cccc34)cc2)n1 |  | > 100 µM (inactive) | > 100 µM (inactive) | 84.9 µM (inactive) | > 100 µM (inactive) |  |  | > 100 µM (inactive) | 60.3 µM (inactive) |  | > 100 µM (inactive) |  | > 100 µM (inactive) | > 100 µM (inactive) |  |  | > 100 µM (inactive) |  | > 100 µM (inactive) | 99.1 µM (inactive)
COc1nc2cccc(C(O)c3ccccc3)c2nc1-c1ccccc1 (centres undefined) | 5.93 µM (inactive) | 4.36 µM (inactive) | 3.18 µM (inactive) | 4.14 µM (inactive) | 3.64 µM (inactive) | 8.41 µM (inactive) | 3.85 µM (inactive) | 3.8 µM (inactive) | 5.11 µM (inactive) | 2.28 µM (inactive) | 5.92 µM (inactive) | 6.24 µM (inactive) | 17 µM (inactive) | 5.83 µM (inactive) | 3.82 µM (inactive) | 4.08 µM (inactive) | 2.81 µM (inactive) | 1.78 µM (inactive) |  | 
CC(C)(C)[Si](C)(C)OCC1OC(n2cnc3c(N)ncnc32)CC1OS(C)(=O)=O (centres undefined) | > 100 µM (inactive) | > 100 µM (inactive) | 64.9 µM (inactive) | > 100 µM (inactive) | 25.6 µM (inactive) | 22.1 µM (inactive) | > 100 µM (inactive) | > 100 µM (inactive) | > 100 µM (inactive) |  | 42.1 µM (inactive) | > 100 µM (inactive) | > 100 µM (inactive) |  | > 100 µM (inactive) |  | 43 µM (inactive) | > 100 µM (inactive) |  | 
NC(CCCCCCCCCCP(=O)(O)O)C(=O)O (centres undefined) | > 100 µM (inactive) | > 100 µM (inactive) | > 100 µM (inactive) | > 100 µM (inactive) | > 100 µM (inactive) | > 100 µM (inactive) | > 100 µM (inactive) |  | > 100 µM (inactive) | > 100 µM (inactive) | > 100 µM (inactive) | > 100 µM (inactive) |  | > 100 µM (inactive) | > 100 µM (inactive) | > 100 µM (inactive) |  | > 100 µM (inactive) |  | 
COc1ccc(OC)c(SC(CC(=O)c2ccccc2)c2ccccc2)c1 (centres undefined) | 7.85 µM (inactive) | 14.2 µM (inactive) | > 100 µM (inactive) | 37.1 µM (inactive) | 15.8 µM (inactive) | 7.45 µM (inactive) | 17.7 µM (inactive) | 14.3 µM (inactive) | 0.877 µM (active) | 28.4 µM (inactive) | 15.6 µM (inactive) |  | 19.8 µM (inactive) | 19.6 µM (inactive) | 3.73 µM (inactive) | 15.2 µM (inactive) |  | 13 µM (inactive) |  | 
COC(=O)[C@@H]1C=C[C@H](NC(C)=O)C1 | > 100 µM (inactive) | > 100 µM (inactive) |  | > 100 µM (inactive) | > 100 µM (inactive) | > 100 µM (inactive) | > 100 µM (inactive) | > 100 µM (inactive) | > 100 µM (inactive) | > 100 µM (inactive) | > 100 µM (inactive) | > 100 µM (inactive) | > 100 µM (inactive) |  | > 100 µM (inactive) |  | > 100 µM (inactive) | > 100 µM (inactive) |  | 
Oc1ccc(NCn2c(=S)sc3ccccc32)cc1 | > 100 µM (inactive) | > 100 µM (inactive) | 59.6 µM (inactive) | > 100 µM (inactive) | > 100 µM (inactive) | > 100 µM (inactive) | > 100 µM (inactive) |  | 34.2 µM (inactive) | 50 µM (inactive) | 84.5 µM (inactive) | > 100 µM (inactive) | > 100 µM (inactive) | > 100 µM (inactive) | 42.7 µM (inactive) | > 100 µM (inactive) | > 100 µM (inactive) | > 100 µM (inactive) |  | 
O=C(OCc1ccccc1)C(Cc1ccccc1)N(Cc1ccccc1)Cc1ccccc1 (centres undefined) |  | > 100 µM (inactive) | 36.7 µM (inactive) | 35.1 µM (inactive) | 46.9 µM (inactive) |  |  |  | 18.5 µM (inactive) |  | 80 µM (inactive) |  | > 100 µM (inactive) | 19.5 µM (inactive) | > 100 µM (inactive) | > 100 µM (inactive) | > 100 µM (inactive) |  | > 100 µM (inactive) | 7.5 µM (inactive)
